“Also recorded” adds a separate entry of the source.
Tests used:
PXR [1] = molecular target: T1, PXR (Homo sapiens, UniProt O75469); experiment: hPXR binding assay; settings: for inhibition at 10 µM: read-out: Binding (% inhibition at 10 μM)
T1 sequence (O75469 1-434): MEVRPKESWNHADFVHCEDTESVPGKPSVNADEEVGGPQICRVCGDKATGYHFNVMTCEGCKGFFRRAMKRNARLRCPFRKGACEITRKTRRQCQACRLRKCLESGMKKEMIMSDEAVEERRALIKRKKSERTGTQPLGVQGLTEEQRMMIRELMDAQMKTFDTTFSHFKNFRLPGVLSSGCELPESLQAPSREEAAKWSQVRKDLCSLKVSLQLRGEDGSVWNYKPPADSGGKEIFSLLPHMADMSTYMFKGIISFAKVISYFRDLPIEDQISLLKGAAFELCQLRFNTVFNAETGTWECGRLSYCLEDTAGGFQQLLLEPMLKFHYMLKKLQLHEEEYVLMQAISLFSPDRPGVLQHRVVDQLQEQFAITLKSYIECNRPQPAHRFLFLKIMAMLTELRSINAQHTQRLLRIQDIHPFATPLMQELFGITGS

GSPT1 = molecular target: T2, GSPT1 (Homo sapiens, UniProt P15170+Q96SW2); experiment: Western blot of GSPT1 protein in SNU—C4 3xFLAG-PXR KI cells; format: cell-based; settings: for GSPT1 Loss at 10 μM (% ± SD): 10 μM compound, calculated from western blots FIG. 9A; for GSPT1 degradation (in words): western blot, SNU—C4 3xFLAG-PXR KI cells
T2 construct: endogenous in cells
Experimental: (§1) The following day, DMSO or compounds were added to result in 0.5% DMSO and the indicated compound concentrations, and cells were incubated for the indicated time points. Cells were lysed and subjected to western blotting as above using antibodies against FLAG (Sigma-Aldrich, cat. #F3165, 1:2,000 dilution), GSPT1 (Abcam, cat. #ab126090, 1:4,000 dilution), and R-Actin (Cell Signaling Technology, cat. #4967, 1:2,000 dilution).

PXR [2] = molecular target: T1, PXR; experiment: cell-based hPXR inverse agonistic assay; settings: for inhibition at 10 µM: read-out: Inverse agonist (% inhibition at 10 μM); for IC50: read-out: Inverse agonist (IC50/μM)
PXR [3] = molecular target: T1, PXR; experiment: cell-based hPXR antagonistic assay; settings: for inhibition at 10 µM: read-out: Antagonist (% inhibition at 10 μM); for IC50: read-out: Antagonist (IC50/μM)
His-CRBN/DDB1 = molecular target: T3, His-CRBN/DDB1 (Homo sapiens, UniProt Q96SW2); experiment: TR-FRET CRBN competitive binding assay (BODIPY FL thalidomide probe); settings: for CRBN binding (in words): FIG. 9D
T3 construct: made in house; host or cells: Sf9 insect cells (baculovirus)
Experimental: The pFastBacDual-6xHis-CRBN/DDB1 plasmid was cloned by GenScript and used for baculoviral expression of His-CRBN and untagged DDB1. Protein was expressed and purified essentially as described previously. The bacmid was produced in MAX Efficiency DH10Bac Competent Cells (Thermo Fisher Scientific) according to the manufacturer's instructions. To generate the P1 virus, 1×10^6 Sf9 cells were plated in each well of a six-well plate in 2 mL Sf-900 III SFM and transfected with 7 μg bacmid using Cellfectin II reagent (Thermo Fisher Scientific). After 6 h at 27° C., the media was replaced with 2 mL fresh Sf-900 III SFM. After three days, the supernatant was collected, centrifuged at 500×g for 5 min to remove cells and debris, transferred to new tubes, and stored at 4° C. To generate P2 virus, 2 mL P1 virus was added to 1×10^8 Sf9 cells in 50 mL Sf-900 III SFM and shaken at 27° C. for three days. The supernatant was collected and clarified as above. For protein expression, 5 mL P2 virus was added to each liter of Sf cells (2×10^6 cells/mL) and shaken at 27° C. for three days. Cells containing expressed protein were pelleted by centrifugation at 500×g for 5 min, the supernatant was removed, and pellets were stored at −80° C. until processing. […] The suspension was incubated on ice for 1 h, gently sonicated, and centrifuged for 1 h at 40,000×g at 4° C. The supernatant was applied to Ni-NTA Superflow resin (QIAGEN) equilibrated with lysis buffer. The resin was washed with 10 column volumes (CV) of lysis buffer, and proteins were eluted with 10 CV lysis buffer containing 500 mM imidazole. The solution was diluted to 200 mM NaCl using lysis buffer without NaCl and applied to a HiTrap ANX FF (High Sub) column (Cytiva) equilibrated with ANX binding buffer [50 mM Tris (pH 7.5), 200 mM NaCl, 3 mM TCEP]. The column was washed with 10 CV ANX binding buffer followed by 10 CV ANX wash buffer [50 mM Bis-Tris (pH 6.0), 200 mM NaCl, 3 mM TCEP]. A 20 CV linear gradient was then immediately applied from ANX binding buffer to ANX binding buffer containing 1 M NaCl using an AKTA avant chromatography system (Cytiva). The purest fractions were applied to a HiLoad 26/600 Superdex 200 pg size exclusion column equilibrated with 10 mM HEPES (pH 7.0), 240 mM NaCl, and 3 mM TCEP. Pure protein was concentrated to 20-30 mg/mL in Pierce PES Protein Concentrators (Thermo Fisher Scientific), flash frozen in liquid nitrogen, and stored at −80° C.
The assay buffer composition was 50 mM Tris (pH 7.5), 0.1% Triton X-100, 0.01% bovine serum albumin, and 1 mM DTT. […] Lastly, 5 μL/well of 8 nM Tb-anti-His and 8 nM His-CRBN/DDB1 in assay buffer was added. […] The plates were then protected from light exposure and incubated for 60 minutes at room temperature (RT). After incubation, the TR-FRET signal from each well was collected with a PHERAstar FS Microplate Reader (BMG Labtech). The percent inhibition for each well was calculated using equation 2: […]

PXR [4] = molecular target: T1, PXR; experiment: cell-based hPXR agonistic assay; settings: for Agonist (% activation at 10 μM): rifampicin at 10 μM as 100% activation, DMSO (0.3%) as 0%
PXR [5] = molecular target: T1, PXR; experiment: Western blot of endogenous 3xFLAG-PXR protein in SNU—C4 3xFLAG-PXR KI cells; format: cell-based; design: To assess SJPYT-195 activity against endogenous PXR, CRISPR-Cas9 was used; endogenous in cells; settings: western blot, SNU—C4 3xFLAG-PXR KI cells
Experimental: as §1

Compound	GSPT1 Loss at 10 μM (% ± SD) (GSPT1) [%]	GSPT1 degradation (in words) (GSPT1)	inhibition at 10 µM (PXR [2]) [%]	IC50 (PXR [2]) [µM]	inhibition at 10 µM (PXR [3]) [%]	IC50 (PXR [3]) [µM]	CRBN binding (in words) (His-CRBN/DDB1)	Agonist (% activation at 10 μM) (PXR [4])	further results
COc1ccc(OC)c(-n2nnc(C(=O)Nc3cc(NCCNc4cccc5c4C(=O)N(C4CCC(=O)NC4=O)C5=O)cc(C(C)(C)C)c3)c2C)c1 (centres unmarked) [Compound M11, N-(3-(tert-butyl)-5-((2-((2-(2,6-dioxopiperidin-3-yl)-1,3-dioxoisoindolin-4-yl)amino)ethyl)amino)phenyl)-1-(2,5-dimethoxyphenyl)-5-methyl-1H-1,2,3-triazole-4-carboxamide]	63 ± 13	strong GSPT1 degradation	135	0.0079	109	0.026 ± 0.0008	retained strong binding of CRBN	–	IC50 (PXR [1]): 0.67 ± 0.014 µM; inhibition at 10 µM (PXR [1]): 61%
CO[C@H]1/C=C/O[C@@]2(C)Oc3c(C)c(O)c4c(O)c(c(/C=N/N5CCN(C)CC5)c(O)c4c3C2=O)NC(=O)/C(C)=C\C=C\[C@H](C)[C@H](O)[C@@H](C)[C@@H](O)[C@@H](C)[C@H](OC(C)=O)[C@@H]1C [Rifampicin, reference compound]	–	–	–	–	–	–	–	(100 ± 2)%	–
COc1ccc(OC)c(-n2nnc(C(=O)Nc3cc(OC(=O)CNc4cccc5c4C(=O)N(C4CCC(=O)NC4=O)C5=O)cc(C(C)(C)C)c3)c2C)c1 (centres unmarked) [Compound M7, 3-(tert-butyl)-5-(1-(2,5-dimethoxyphenyl)-5-methyl-1H-1,2,3-triazole-4-carboxamido)phenyl (2-(2,6-dioxopiperidin-3-yl)-1,3-dioxoisoindolin-4-yl)glycinate]	46 ± 1.5	only weakly degraded GSPT1	103	0.2 ± 0.038	71	1.38 ± 0.47	retained strong binding of CRBN	–	–
CC(=O)Nc1cc(Nc2cccc3c2C(=O)N(C2CCC(=O)NC2=O)C3=O)cc(C(C)(C)C)c1 (centres unmarked) [Compound A3, N-(3-(tert-butyl)-5-((2-(2,6-dioxopiperidin-3-yl)-1,3-dioxoisoindolin-4-yl)amino)phenyl)acetamide]	15 ± 21	–	–	–	–	–	–	–	GSPT1 degradation (in words) (GSPT1; listed as SJPYT-231): did not affect either PXR or GSPT1 levels; also recorded: lost the degradation activity of GSPT1; PXR protein level (in words) (PXR [5]): did not affect either PXR or GSPT1 levels; CRBN binding (in words) (His-CRBN/DDB1; listed as SJPYT-231): strongest CRBN binding of all tested compounds; also recorded: maintained strong CRBN binding; also recorded: higher affinity CRBN binder than thalidomide or pomalidomide
COc1ccc(OC)c(-n2nnc(C(=O)Nc3cc(NC(=O)CNc4cccc5c4C(=O)N(C4CCC(=O)NC4=O)C5=O)cc(C(C)(C)C)c3)c2C)c1 (centres unmarked) [Compound M8, N-(3-(tert-butyl)-5-(2-((2-(2,6-dioxopiperidin-3-yl)-1,3-dioxoisoindolin-4-yl)amino)acetamido)phenyl)-1-(2,5-dimethoxyphenyl)-5-methyl-1H-1,2,3-triazole-4-carboxamide]	89 ± 3.1	strong GSPT1 degradation	19	13.2 ± 1.28	–	–	retained strong binding of CRBN	–	–
COc1ccc(OC)c(-n2nnc(C(=O)Nc3cc(C(C)(C)C)ccc3OCCCCN3C(=O)CCC(N4Cc5c(N)cccc5C4=O)C3=O)c2C)c1 (centres unmarked) [Compound N1, N-(2-(4-(3-(4-amino-1-oxoisoindolin-2-yl)-2,6-dioxopiperidin-1-yl)butoxy)-5-(tert-butyl)phenyl)-1-(2,5-dimethoxyphenyl)-5-methyl-1H-1,2,3-triazole-4-carboxamide]	–	–	–	–	–	–	–	(55 ± 5)%	EC50 (PXR [4]; NA = no value within concentration range tested (highest 30 μM), read-out: Agonist (EC50/μM)): 0.75 ± 0.11 µM; IC50 (PXR [1]): 1.27 ± 0.48 µM; inhibition at 10 µM (PXR [1]): 34%
COc1ccc(OC)c(-n2nnc(C(=O)Nc3cc(OCCNc4cccc5c4C(=O)N(C4CCC(=O)NC4=O)C5=O)cc(C(C)(C)C)c3)c2C)c1 (centres unmarked) [Compound M10, N-(3-(tert-butyl)-5-(2-((2-(2,6-dioxopiperidin-3-yl)-1,3-dioxoisoindolin-4-yl)amino)ethoxy)phenyl)-1-(2,5-dimethoxyphenyl)-5-methyl-1H-1,2,3-triazole-4-carboxamide]	72 ± 2.3	strong GSPT1 degradation	128	0.042 ± 0.0085	102	0.23 ± 0.023	retained strong binding of CRBN	–	–
COc1ccc(OC)c(-n2nnc(C(=O)Nc3cc(OCCCCCCCCN4C(=O)CCC(N5C(=O)c6cccc(N)c6C5=O)C4=O)cc(C(C)(C)C)c3)c2C)c1 (centres unmarked) [Compound N5, N-(3-((8-(3-(4-amino-1,3-dioxoisoindolin-2-yl)-2,6-dioxopiperidin-1-yl)octyl)oxy)-5-(tert-butyl)phenyl)-1-(2,5-dimethoxyphenyl)-5-methyl-1H-1,2,3-triazole-4-carboxamide]	–	–	–	–	–	–	–	(81 ± 5)%	–
CC(C)(C)c1cc(N)cc(Oc2cccc3c2C(=O)N(C2CCC(=O)NC2=O)C3=O)c1 (centres unmarked) [Compound A1, 4-(3-amino-5-(tert-butyl)phenoxy)-2-(2,6-dioxopiperidin-3-yl)isoindoline-1,3-dione]	23 ± 2.8	lost the degradation activity of GSPT1	–	–	–	–	maintained strong CRBN binding	–	–
COc1ccc(OC)c(-n2nnc(C(=O)Nc3cc(OCC(=O)Nc4cccc5c4C(=O)N(C4CCC(=O)NC4=O)C5=O)cc(C(C)(C)C)c3)c2C)c1 (centres unmarked) [Compound M9, N-(3-(tert-butyl)-5-(2-((2-(2,6-dioxopiperidin-3-yl)-1,3-dioxoisoindolin-4-yl)amino)-2-oxoethoxy)phenyl)-1-(2,5-dimethoxyphenyl)-5-methyl-1H-1,2,3-triazole-4-carboxamide]	20 ± 4.8	–	–	–	–	–	greatly reduced CRBN binding	–	EC50 (His-CRBN/DDB1; TR-FRET competitive binding, derived from FIG. 9D, read-out: CRBN Binding EC50 ± SD): > 333 nM
